Earlier results, collected in patent US7074355B2, “Process for dry granulation by agitative balling for the preparation of chemically stable, dry-flow, low compact, dust free, soluble spherical granules of phosphoroamidothioate” (United Phosphorus Ltd., priority 2003, dated 2006).

System: insects
Conditions: systemic and contact insecticide of moderate persistence

COP(=O)(NC(C)=O)SC (stereo not shown) [Acephate]
residual activity lasting: 10 to 15 days
